# Assays:
# Assay in all cases: relative viability (nuclei count vs DMSO), 5 days (fraction); higher = more cells survive
# 201T = system: 201T
# Outline: (§1)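 The day after seeding in 1536-well plates, lung cancer cell lines were treated by pin tool with a single drug, or with a fixed anchor-drug dose together with five library-drug doses (not always all listed) in √10 steps. After 5 days, a combined fix-and-stain solution (final 0.05% Triton X-100, 1% formaldehyde, 1 ug/ml Hoechst) was added. Nuclei counted on 4× images gave relative viability as treated counts over vehicle counts, reported as the median of duplicate plates.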
# BEN = system: BEN
# Outline: as §1
# EPLC-272H = system: EPLC-272H
# Outline: as §1
# HCC-15 = system: HCC-15
# Outline: as §1
# HCC-78 = system: HCC-78
# Outline: as §1
# LCLC-97TM1 = system: LCLC-97TM1
# Outline: as §1
# LU99A = system: LU99A
# Outline: as §1
# NCI-H1355 = system: NCI-H1355
# Outline: as §1
# NCI-H1395 = system: NCI-H1395
# Outline: as §1
# NCI-H2009 = system: NCI-H2009
# Outline: as §1
# NCI-H2085 = system: NCI-H2085
# Outline: as §1
# NCI-H2126 = system: NCI-H2126
# Outline: as §1
# NCI-H2228 = system: NCI-H2228
# Outline: as §1
# NCI-H2342 = system: NCI-H2342
# Outline: as §1
# NCI-H23 = system: NCI-H23
# Outline: as §1
# NCI-H2405 = system: NCI-H2405
# Outline: as §1
# NCI-H322M = system: NCI-H322M
# Outline: as §1
# NCI-H460 = system: NCI-H460
# Outline: as §1
# NCI-H647 = system: NCI-H647
# Outline: as §1
# NCI-H650 = system: NCI-H650
# Outline: as §1
# NCI-H661 = system: NCI-H661
# Outline: as §1
# NCI-H838 = system: NCI-H838
# Outline: as §1
# PC-14 = system: PC-14
# Outline: as §1
smiles,measurement,setting,value
CCNC(=O)c1noc(-c2cc(C(C)C)c(O)cc2O)c1-c1ccc(CN2CCOCC2)cc1 [Luminespib] + CC(=O)Nc1cccc(-n2c(=O)n(C3CC3)c(=O)c3c(Nc4ccc(I)cc4F)n(C)c(=O)c(C)c32)c1 [Trametinib] (partner 0.02 µM),relative viability,201T; first compound 0.002 µM,0.667
same,relative viability,201T; first compound 0.006325 µM,0.706
same,relative viability,201T; first compound 0.02 µM,0.675
same,relative viability,201T; first compound 0.06325 µM,0.67
same,relative viability,201T; first compound 0.2 µM,0.674
same,relative viability,BEN; first compound 0.002 µM,1.11
same,relative viability,BEN; first compound 0.006325 µM,1
same,relative viability,BEN; first compound 0.02 µM,0.481
same,relative viability,BEN; first compound 0.06325 µM,0.748
same,relative viability,BEN; first compound 0.2 µM,0.341
same,relative viability,EPLC-272H; first compound 0.002 µM,0.278
same,relative viability,EPLC-272H; first compound 0.006325 µM,0.309
same,relative viability,EPLC-272H; first compound 0.02 µM,0.212
same,relative viability,EPLC-272H; first compound 0.06325 µM,0.238
same,relative viability,EPLC-272H; first compound 0.2 µM,0.0855
same,relative viability,HCC-15; first compound 0.002 µM,0.394
same,relative viability,HCC-15; first compound 0.006325 µM,0.364
same,relative viability,HCC-15; first compound 0.02 µM,0.391
same,relative viability,HCC-15; first compound 0.06325 µM,0.258
same,relative viability,HCC-15; first compound 0.2 µM,0.13
same,relative viability,HCC-78; first compound 0.002 µM,0.74
same,relative viability,HCC-78; first compound 0.006325 µM,0.61
same,relative viability,HCC-78; first compound 0.02 µM,0.572
same,relative viability,HCC-78; first compound 0.06325 µM,0.874
same,relative viability,HCC-78; first compound 0.2 µM,0.512
same,relative viability,LCLC-97TM1; first compound 0.002 µM,0.233
same,relative viability,LCLC-97TM1; first compound 0.006325 µM,0.186
same,relative viability,LCLC-97TM1; first compound 0.06325 µM,0.221
same,relative viability,LCLC-97TM1; first compound 0.2 µM,0.166
same,relative viability,LU99A; first compound 0.002 µM,0.534
same,relative viability,LU99A; first compound 0.006325 µM,0.493
same,relative viability,LU99A; first compound 0.02 µM,0.378
same,relative viability,LU99A; first compound 0.06325 µM,0.482
same,relative viability,LU99A; first compound 0.2 µM,0.507
same,relative viability,NCI-H1355; first compound 0.002 µM,0.421
same,relative viability,NCI-H1355; first compound 0.006325 µM,0.445
same,relative viability,NCI-H1355; first compound 0.02 µM,0.265
same,relative viability,NCI-H1355; first compound 0.06325 µM,0.396
same,relative viability,NCI-H1355; first compound 0.2 µM,0.158
same,relative viability,NCI-H1395; first compound 0.002 µM,0.994
same,relative viability,NCI-H1395; first compound 0.006325 µM,1.05
same,relative viability,NCI-H1395; first compound 0.02 µM,0.827
same,relative viability,NCI-H1395; first compound 0.06325 µM,0.35
same,relative viability,NCI-H1395; first compound 0.2 µM,0.379
same,relative viability,NCI-H2009; first compound 0.002 µM,0.271
same,relative viability,NCI-H2009; first compound 0.006325 µM,0.225
same,relative viability,NCI-H2009; first compound 0.02 µM,0.169
same,relative viability,NCI-H2009; first compound 0.06325 µM,0.0625
same,relative viability,NCI-H2009; first compound 0.2 µM,0.0698
same,relative viability,NCI-H2085; first compound 0.002 µM,0.535
same,relative viability,NCI-H2085; first compound 0.006325 µM,0.507
same,relative viability,NCI-H2085; first compound 0.02 µM,0.33
same,relative viability,NCI-H2085; first compound 0.06325 µM,0.202
same,relative viability,NCI-H2085; first compound 0.2 µM,0.241
same,relative viability,NCI-H2126; first compound 0.002 µM,0.608
same,relative viability,NCI-H2126; first compound 0.006325 µM,0.608
same,relative viability,NCI-H2126; first compound 0.06325 µM,0.667
same,relative viability,NCI-H2126; first compound 0.2 µM,0.599
same,relative viability,NCI-H2228; first compound 0.002 µM,0.512
same,relative viability,NCI-H2228; first compound 0.006325 µM,0.336
same,relative viability,NCI-H2228; first compound 0.02 µM,0.133
same,relative viability,NCI-H2228; first compound 0.06325 µM,0.0941
same,relative viability,NCI-H2228; first compound 0.2 µM,0.106
same,relative viability,NCI-H2342; first compound 0.002 µM,0.687
same,relative viability,NCI-H2342; first compound 0.006325 µM,0.881
same,relative viability,NCI-H2342; first compound 0.02 µM,0.551
same,relative viability,NCI-H2342; first compound 0.06325 µM,0.889
same,relative viability,NCI-H2342; first compound 0.2 µM,0.52
same,relative viability,NCI-H23; first compound 0.002 µM,0.397
same,relative viability,NCI-H23; first compound 0.006325 µM,0.424
same,relative viability,NCI-H23; first compound 0.02 µM,0.333
same,relative viability,NCI-H23; first compound 0.06325 µM,0.13
same,relative viability,NCI-H23; first compound 0.2 µM,0.156
same,relative viability,NCI-H2405; first compound 0.002 µM,0.669
same,relative viability,NCI-H2405; first compound 0.02 µM,0.515
same,relative viability,NCI-H2405; first compound 0.06325 µM,0.252
same,relative viability,NCI-H2405; first compound 0.2 µM,0.202
same,relative viability,NCI-H322M; first compound 0.002 µM,0.494
same,relative viability,NCI-H322M; first compound 0.006325 µM,0.535
same,relative viability,NCI-H322M; first compound 0.02 µM,0.453
same,relative viability,NCI-H322M; first compound 0.06325 µM,0.456
same,relative viability,NCI-H322M; first compound 0.2 µM,0.407
same,relative viability,NCI-H460; first compound 0.002 µM,0.205
same,relative viability,NCI-H460; first compound 0.006325 µM,0.124
same,relative viability,NCI-H460; first compound 0.02 µM,0.0112
same,relative viability,NCI-H460; first compound 0.06325 µM,0.0128
same,relative viability,NCI-H460; first compound 0.2 µM,0.0152
same,relative viability,NCI-H647; first compound 0.002 µM,0.507
same,relative viability,NCI-H647; first compound 0.006325 µM,0.508
same,relative viability,NCI-H647; first compound 0.02 µM,0.195
same,relative viability,NCI-H647; first compound 0.06325 µM,0.0973
same,relative viability,NCI-H647; first compound 0.2 µM,0.0815
same,relative viability,NCI-H650; first compound 0.002 µM,1.06
same,relative viability,NCI-H650; first compound 0.006325 µM,0.881
same,relative viability,NCI-H650; first compound 0.02 µM,0.629
same,relative viability,NCI-H650; first compound 0.06325 µM,0.262
same,relative viability,NCI-H650; first compound 0.2 µM,0.086
same,relative viability,NCI-H661; first compound 0.002 µM,0.56
same,relative viability,NCI-H661; first compound 0.006325 µM,0.553
same,relative viability,NCI-H661; first compound 0.02 µM,0.382
same,relative viability,NCI-H661; first compound 0.06325 µM,0.265
same,relative viability,NCI-H661; first compound 0.2 µM,0.256
same,relative viability,NCI-H838; first compound 0.002 µM,0.582
same,relative viability,NCI-H838; first compound 0.006325 µM,0.474
same,relative viability,NCI-H838; first compound 0.02 µM,0.294
same,relative viability,NCI-H838; first compound 0.06325 µM,0.093
same,relative viability,NCI-H838; first compound 0.2 µM,0.134
same,relative viability,PC-14; first compound 0.002 µM,0.738
same,relative viability,PC-14; first compound 0.006325 µM,0.652
same,relative viability,PC-14; first compound 0.02 µM,0.243
same,relative viability,PC-14; first compound 0.06325 µM,0.0663
same,relative viability,PC-14; first compound 0.2 µM,0.0601
